Patent US20240165182A1, “METHOD OF EXTRACTION OF PROANTHOCYANIDINS COMPOUND FROM PINE BARK OF PINUS ROXBURGHII” (AMBE PHYTOEXTRACTS PVT. LTD., priority 2022, published 2024)

Columns and labels:
[1] = tested on: Human keratinocytes (HaCaT); test: GSH modulation assay against hydrogen peroxide induced oxidative stress (GSH ELISA); format: cell-based; conditions: H2O2 500 μm 3 hours, tested concentration 17.61 μg/ml (positive control)
Method: For conducting the analysis, 10 mg of Pine bark extract from Pinus roxburghii (Pinorox®) was dissolved in a DMSO (Dimethyl sulfoxide) solution. The volume of the test solution was made up using DMEM-HG (Dulbecco's Modified eagle Medium) and supplemented with 2% inactivated FBS (Fetal bovine serum) to acquire a solution with concentration of 10 mg/ml. The test solution was further proceeded with sterilization using syringe filtration. For carrying out the cytotoxic analysis, a two-fold serial dilution was prepared. The cell line of Human keratinocytes (HaCaT) was obtained from Addex Bio, USA and were cultured in DMEM-HG supplemented media with 10% inactivated fetal bovine serum (FBS), penicillin (100 IU/mL), streptomycin ([…]) and amphotericin B (5 μg/mL) in a wet atmosphere of 5% CO2 at a temperature of 37° C. until confluent. […] The samples were analyzed to estimate the levels of GSH using Elab science GSH ELISA kit by following the manufacturer's instruction. […]

[2] = Total antioxidant capacity (TAC) assay, sulphuric acid/sodium phosphate/ammonium molybdate reagent; conditions: concentration 1000 μg/ml, 90 minutes at 95° C.
Method: The assay was performed to evaluate the total antioxidant capacity of a Pinorox® i.e. Pine bark extract from Pinus roxburghii against the standard ascorbic acid for in-vitro study. Antioxidants are compounds that are capable of inhibiting the process of oxidation that occurs under the influence of atmospheric oxygen or reactive oxygen species. The antioxidants are employed for stabilizing polymeric products, petrochemicals, cosmetics and food stuff along with pharmaceuticals. Antioxidants are involved in defense mechanisms of an organism against the associated pathologies in order to attack the free radicals. The test is carried out to check the total antioxidant capacity of a pine bark extract in order to avoid nutritional loss. The total antioxidant capacity of Pinorox® i.e. Pine bark extract from Pinus roxburghii was found out to be 756.993±0.150 mM equivalent of the ascorbic acid having 1000±0.027 mM at 1000 μg/mL. Pine bark extract of 5.5 mg each/ascorbic acid were subjected to dissolve in 0.5 ml of DMSO (Dimethyl sulfoxide) in a separate container. 0.244 ml of 0.6 M sulphuric acid was added to a 15 ml of distilled water. […] The absorbance was recorded at […] via ELISA (enzyme-linked immunosorbent assay) reader and the values were recorded. The total activity of antioxidant was expressed as mM which is equivalent of ascorbic acid. […]

O=C1O[C@H]([C@@H](O)CO)C(O)=C1O [Ascorbic acid]
% Increase in GSH level over hydrogen peroxide control [1]: 95.59±0.03% | TAC (total antioxidant capacity) [2]: 1000 ± 0.027 mM equivalent of ascorbic acid | TAC (total antioxidant capacity) ([2]; listed as ascorbic acid): 1000±0.027 mM equivalent of ascorbic acid
